In article PMC10968448, “An In Silico and In Vitro Assessment of the Neurotoxicity of Mefloquine” (Biomedicines, 2024):
Structures can show the parent of a compound that is named as a salt.

Experiments:
SH-SY5Y cells [1] = experiment: Mitochondrial membrane potential (MMP) assay, MitoTracker Green FM; format: cell-based, human; conditions: 48 h exposure
human BuChE enzyme = human BuChE enzyme (Homo sapiens, UniProt P06276); experiment: biochemical; format: biochemical
SH-SY5Y cells [2] = tested on: SH-SY5Y cells; design: method as in PMID 22465322; conditions: 10 µM MQ, 24 h; cited from earlier work
SH-SY5Y cells [3] = experiment: Flow cytometric assessment of cell death, Annexin V-FITC/PI; format: cell-based, human
[4] = human, in vivo, cited from earlier work
SH-SY5Y cells [5] = experiment: MTT assay of cell metabolic activity/viability; format: cell-based, human; conditions: for increase of cell metabolic activity (MTT): 6 h, p < 0.0001; for IC50: Homo sapiens, SH-SY5Y cells, non-linear regression
[6] = target: human AChE enzyme (recombinant) (Homo sapiens, UniProt P22303); experiment: biochemical; format: biochemical
Chain of human AChE enzyme (recombinant) (P22303 32-614): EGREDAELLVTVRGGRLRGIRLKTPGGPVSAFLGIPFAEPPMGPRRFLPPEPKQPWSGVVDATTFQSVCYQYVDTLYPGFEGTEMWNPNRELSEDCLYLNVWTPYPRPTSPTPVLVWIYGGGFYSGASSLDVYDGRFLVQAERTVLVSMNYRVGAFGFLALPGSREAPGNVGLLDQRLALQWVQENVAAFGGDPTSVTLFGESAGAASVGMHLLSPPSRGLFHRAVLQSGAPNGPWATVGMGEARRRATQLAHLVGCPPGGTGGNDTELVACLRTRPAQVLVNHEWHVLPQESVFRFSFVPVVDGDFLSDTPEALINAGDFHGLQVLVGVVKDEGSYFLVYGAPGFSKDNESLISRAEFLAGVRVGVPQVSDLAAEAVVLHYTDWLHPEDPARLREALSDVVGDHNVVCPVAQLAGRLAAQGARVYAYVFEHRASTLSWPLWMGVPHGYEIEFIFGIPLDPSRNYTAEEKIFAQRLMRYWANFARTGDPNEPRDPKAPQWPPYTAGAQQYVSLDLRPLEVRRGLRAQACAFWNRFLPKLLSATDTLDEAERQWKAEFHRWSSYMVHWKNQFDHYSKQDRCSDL

SH-SY5Y cells [7] = experiment: Cellular ATP bioluminescence assay (cellular bioenergetics); format: cell-based, human; conditions: for IC50: Homo sapiens
[8] = target: 5-hydroxytryptamine-3 (5-HT3) (serotonin) receptors; design: method as in PMID 17502851; conditions: non-competitive inhibitor; cited from earlier work
human (recombinant) AChE = tested on: human (recombinant) AChE; design: method as in PMID 16288931; conditions: 10 µM MQ; cited from earlier work
KYSE150 cells = tested on: KYSE150 cells; design: method as in PMID 32850358; conditions: 10 µM MQ, KYSE150 oesophageal squamous cell carcinoma cell line; cited from earlier work
[9] = tested on: AChE of electric eel origin; design: method as in PMID 3878759; conditions: proposed non-competitive inhibitor; cited from earlier work
SH-SY5Y cells [10] = experiment: LDH cytotoxicity assay (extracellular LDH); format: cell-based, human; conditions: for IC50: Homo sapiens
[11] = design: method as in PMID 32639233; conditions: overdose; cited from earlier work
[12] = design: method as in PMID 21118921; conditions: healthy male and female volunteers; cited from earlier work
SH-SY5Y cells [13] = experiment: ROS generation, DCFDA assay; format: cell-based, human; conditions: 10 mM NAC with MQ 0.1–10 µM, 3 h
[14] = SH-SY5Y cells, 6 h exposure, non-linear regression
[15] = SH-SY5Y cells, 24 h exposure, non-linear regression
[16] = SH-SY5Y cells, 48 h exposure, non-linear regression

Chain of human BuChE enzyme (P06276 29-602): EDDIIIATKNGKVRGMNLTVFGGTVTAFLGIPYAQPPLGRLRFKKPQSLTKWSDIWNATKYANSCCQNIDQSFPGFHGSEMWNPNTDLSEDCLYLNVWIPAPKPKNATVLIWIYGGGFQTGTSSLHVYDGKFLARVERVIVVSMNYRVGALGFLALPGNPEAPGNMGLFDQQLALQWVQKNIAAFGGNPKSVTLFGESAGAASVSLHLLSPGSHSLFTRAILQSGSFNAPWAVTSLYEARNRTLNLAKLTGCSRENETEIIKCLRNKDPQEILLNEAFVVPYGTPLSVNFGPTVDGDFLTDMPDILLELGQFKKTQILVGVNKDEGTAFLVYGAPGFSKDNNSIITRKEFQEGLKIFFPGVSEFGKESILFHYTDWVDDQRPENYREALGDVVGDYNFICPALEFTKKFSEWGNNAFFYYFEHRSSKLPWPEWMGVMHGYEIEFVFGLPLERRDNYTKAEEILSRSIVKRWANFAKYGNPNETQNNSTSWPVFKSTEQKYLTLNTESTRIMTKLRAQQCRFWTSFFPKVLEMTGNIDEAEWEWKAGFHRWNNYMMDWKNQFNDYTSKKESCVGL

With `O[C@H](c1cc(C(F)(F)F)nc2c(C(F)(F)F)cccc12)[C@@H]1CCCCN1` (racemic) [MQ, (R*,S*)-(+/−)-α-2-Piperidyl-2,8-bis(trifluoromethyl)quinoline-4-methanol monohydrochloride] the “concentration at which the MMP is significantly altered” value (SH-SY5Y cells [1]) was 10 µM, the inhibition at 100 µM (human BuChE enzyme; 100 µM MQ) was 18% and the “concentration from which BuChE activity is significantly reduced” value (human BuChE enzyme; MQ 1–100 µM assayed) was ≥ 25 µM. The “reduction in BuChE enzymatic activity” value (human BuChE enzyme; MQ exposures of between 1 and 25 µM) was “approximately 10%”, the “reduction of cell viability (MTT)” value (SH-SY5Y cells [2]) was “approximately 20%” and the “concentration at which increase in apoptotic cells reached significance” value (SH-SY5Y cells [3]; 6 h exposure) was 50 µM. For the same compound, the “concentration at which increase in apoptotic cells reached significance” value (SH-SY5Y cells [3]; 24 h exposure) was 20 µM, the “time of peak concentration in the blood” value ([4]; po) was 7 to 24 h and the terminal half-life [4] was 14 to 15 days. The “increase of cell metabolic activity (MTT)” value (SH-SY5Y cells [5]; 1 µM MQ) was 27%, the “increase of cell metabolic activity (MTT)” value (SH-SY5Y cells [5]; 10 µM MQ) was “approximately 29%” and the “reduction of cell metabolic activity (MTT)” value (SH-SY5Y cells [5]; 10 µM MQ, 48 h, p = 0.024) was 13.6%. The “threshold concentration for significant reduction in viability” value (SH-SY5Y cells [5]; 48 h exposure) was ~10 µM, the IC50 (SH-SY5Y cells [5]; 6 h exposure) was 67.1 µM and the IC50 (SH-SY5Y cells [5]; 24 h exposure) was 23.9 µM. For the same compound, the IC50 (SH-SY5Y cells [5]; 48 h exposure) was 14.2 µM, the “threshold concentration for toxicity to neuroblastoma cells (MTT)” value (SH-SY5Y cells [5]; all time points examined (6, 24, 48 h)) was ≥ 25 µM and the inhibition at 1 µM ([6]; 1 µM MQ) was 9.8%. The inhibition at 10 µM ([6]; 10 µM MQ, significant) was 20.5%, the “concentration from which AChE activity is significantly reduced” value ([6]; MQ 1–100 µM assayed) was ≥ 10 µM and the “concentration from which cellular ATP is significantly reduced” value (SH-SY5Y cells [7]; 6 h exposure) was ≥ 1 µM. For the same compound, the “concentration from which cellular ATP is significantly reduced” value (SH-SY5Y cells [7]; 48 h exposure) was ≥ 0.1 µM, the IC50 (SH-SY5Y cells [7]; SH-SY5Y, 24 h exposure) was ~6 µM and the IC50 (SH-SY5Y cells [7]; [14]) was 10.2 µM. The IC50 (SH-SY5Y cells [7]; [15]) was 4.73 µM, the IC50 (SH-SY5Y cells [7]; [16]) was 3.19 µM and the IC50 [8] was ~10 µM. The “inhibition of human (recombinant) AChE” value (human (recombinant) AChE) was < 10%, the “effect on cell number” value (KYSE150 cells) was “reduces the cell number” and the “inhibition of electric eel AChE” value [9] was “weak inhibitor”. The “extracellular LDH production” value (SH-SY5Y cells [10]; 0.1 to 10 µM MQ, except 10 µM after 48 h) was “no significant LDH production”, the “extracellular LDH levels” value (SH-SY5Y cells [10]; 25, 50 and 100 µM MQ) was “dramatic increase” and the IC50 (SH-SY5Y cells [10]; SH-SY5Y, 24 h exposure) was ~16 µM. It also gave an IC50 (SH-SY5Y cells [10]; [14]) of 26.2 µM, an IC50 (SH-SY5Y cells [10]; [15]) of 16.2 µM and an IC50 (SH-SY5Y cells [10]; [16]) of 11.7 µM.

In the case of `CCN(CC)CCCC(C)Nc1ccnc2cc(Cl)ccc12` (stereo not drawn) [chloroquine], the “whole blood concentration associated with 1% mortality” value [11] is listed as 13.5 µM.

In the case of `O[C@H](c1cc(C(F)(F)F)nc2c(C(F)(F)F)cccc12)[C@@H]1CCCCN1` (single isomer, unassigned) [+-MQ enantiomer], the “safety and tolerability compared with the racemate” value [12] is given as “more favourable profile for mood and sleep”.

In the case of `CC(=O)N[C@@H](CS)C(=O)O` [NAC, N-acetylcysteine], the “effect of antioxidant co-treatment on MQ-induced ROS production” value (SH-SY5Y cells [13]) is reported as “significantly inhibited MQ-induced ROS production”.
